≈ marks a conversion by molar mass, not a printed value.
Assays:
Assay in all cases: Agar dilution antibacterial MIC assay
Format in all cases: cell-based
[1] = tested on: Streptococcus Pneumonia 5649; details: organism code ZZA, BHI agar, 35-37 °C, 20 to 24 hours, unit assumed
Description: (§1) Representative compounds of the present invention were assayed in vitro for antibacterial activity as follows: Twelve petri dishes containing successive aqueous dilutions of the test compound mixed with 10 mL of sterilized Brain Heart Infusion (BHI) agar (Difco 0418-01-5) were prepared. Each plate was inoculated with 1:100 (or 1:10 for slow-growing strains, such as Micrococcus and Streptococcus) dilutions of up to 32 different microorganisms, using a Steers replicator block. […] In addition, a control plate, using BHI agar containing no test compound, was prepared and incubated at the beginning and end of each test.
(§2) An additional plate containing a compound having known susceptibility patterns for the organisms being tested and belonging to the same antibiotic class as the test compound was also prepared and incubated as a further control, as well as to provide test-to-test comparability.
(§3) After incubation, each plate was visually inspected. The minimum inhibitory concentration (MIC) was defined as the lowest concentration of drug yielding no growth, a slight haze, or sparsely isolated colonies on the inoculum spot as compared to the growth control.

[2] = tested on: Streptococcus Pneumonia GYR 1171; details: organism code YY, BHI agar, 35-37 °C, 20 to 24 hours, unit assumed
Description: as §1, §2, §3

Candida albicans CCH 442 = details: organism code TT, BHI agar, 35-37 °C, 20 to 24 hours, unit assumed
Description: as §1, §2, §3

[3] = tested on: Mycobacterium smegmatis ATCC 114; details: organism code UU, BHI agar, 35-37 °C, 20 to 24 hours, unit assumed
Description: as §1, §2, §3

[4] = tested on: Nocardia Asteroides ATCC9970; details: organism code VV, BHI agar, 35-37 °C, 20 to 24 hours, unit assumed
Description: as §1, §2, §3

[5] = tested on: Micrococcus luteus ATCC 4698; details: organism code PP, BHI agar, 35-37 °C, 20 to 24 hours, unit assumed
Description: as §1, §2, §3

[6] = tested on: Staphylococcus aureus A5177; details: organism code BB, BHI agar, 35-37 °C, 20 to 24 hours, unit assumed
Description: as §1, §2, §3

[7] = tested on: Staphylococcus epidermidis 3519; details: organism code HH, BHI agar, 35-37 °C, 20 to 24 hours, unit assumed
Description: as §1, §2, §3

[8] = tested on: Staphylococcus aureus CMX 642A; details: organism code DD, BHI agar, 35-37 °C, 20 to 24 hours, unit assumed
Description: as §1, §2, §3

[9] = tested on: Staphylococcus aureus ATCC 6538P; details: organism code AA, BHI agar, 35-37 °C, 20 to 24 hours, unit assumed
Description: as §1, §2, §3

[10] = tested on: Streptococcus bovis A-5169; details: organism code JJ, BHI agar, 35-37 °C, 20 to 24 hours, unit assumed
Description: as §1, §2, §3

[11] = tested on: Staphylococcus aureus A-5278; details: organism code CC, BHI agar, 35-37 °C, 20 to 24 hours, unit assumed
Description: as §1, §2, §3

[12] = tested on: Enterococcus faecium ATCC 8043; details: organism code II, BHI agar, 35-37 °C, 20 to 24 hours, unit assumed
Description: as §1, §2, §3

[13] = tested on: Streptococcus agalactiae CMX 508; details: organism code KK, BHI agar, 35-37 °C, 20 to 24 hours, unit assumed
Description: as §1, §2, §3

[14] = tested on: Streptococcus pyogenes EES61; details: organism code LL, BHI agar, 35-37 °C, 20 to 24 hours, unit assumed
Description: as §1, §2, §3

[15] = tested on: Staphylococcus aureus NCTC10649M; details: organism code EE, BHI agar, 35-37 °C, 20 to 24 hours, unit assumed
Description: as §1, §2, §3

Escherichia coli JUHL = details: organism code QQ, BHI agar, 35-37 °C, 20 to 24 hours, unit assumed
Description: as §1, §2, §3

[16] = tested on: Staphylococcus aureus CMX 553; details: organism code FF, BHI agar, 35-37 °C, 20 to 24 hours, unit assumed
Description: as §1, §2, §3

[17] = tested on: Streptococcus pyogenes 930; details: organism code MM, BHI agar, 35-37 °C, 20 to 24 hours, unit assumed
Description: as §1, §2, §3

[18] = tested on: Haemophilis Influenzae DILL AMP R; details: organism code WW, BHI agar, 35-37 °C, 20 to 24 hours, unit assumed
Description: as §1, §2, §3

[19] = tested on: Streptococcus pyogenes PIU 2548; details: organism code NN, BHI agar, 35-37 °C, 20 to 24 hours, unit assumed
Description: as §1, §2, §3

Escherichia coli DC-2 = details: organism code SS, BHI agar, 35-37 °C, 20 to 24 hours, unit assumed
Description: as §1, §2, §3

Escherichia coli SS = details: organism code RR, BHI agar, 35-37 °C, 20 to 24 hours, unit assumed
Description: as §1, §2, §3

[20] = tested on: Streptococcus Pneumonia ATCC6303; details: organism code XX, BHI agar, 35-37 °C, 20 to 24 hours, unit assumed
Description: as §1, §2, §3

[21] = tested on: Micrococcus luteus ATCC 9341; details: organism code OO, BHI agar, 35-37 °C, 20 to 24 hours, unit assumed
Description: as §1, §2, §3

[22] = tested on: Staphylococcus aureus 1775; details: organism code GG, BHI agar, 35-37 °C, 20 to 24 hours, unit assumed
Description: as §1, §2, §3

[23] = tested on: Streptococcus Pneumonia 5979; details: organism code ZZ, BHI agar, 35-37 °C, 20 to 24 hours, unit assumed
Description: as §1, §2, §3

Compound	MIC [1] [µg/mL]	MIC [2] [µg/mL]	MIC (Candida albicans CCH 442) [µg/mL]	MIC [3] [µg/mL]	MIC [4] [µg/mL]	MIC [5] [µg/mL]	MIC [6] [µg/mL]	MIC [7] [µg/mL]	MIC [9] [µg/mL]	MIC [10] [µg/mL]	MIC [11] [µg/mL]	MIC [13] [µg/mL]	MIC [14] [µg/mL]	MIC [15] [µg/mL]	MIC (Escherichia coli JUHL) [µg/mL]	MIC [17] [µg/mL]	MIC [18] [µg/mL]	MIC [19] [µg/mL]	MIC (Escherichia coli SS) [µg/mL]	MIC [20] [µg/mL]	other results
CC[C@H]1OC(=O)[C@H](C)[C@@H](O[C@H]2C[C@@](C)(OC)[C@@H](O)[C@H](C)O2)[C@H](C)[C@@H](O[C@@H]2O[C@H](C)C[C@H](N(C)C)[C@H]2O)[C@](C)(O)C[C@@H](C)C(=O)[C@H](C)[C@@H](O)[C@]1(C)O [Ery. A standard, Erythromycin A, reference compound]	16 (≈ 21.8 µM)	0.06 (≈ 0.0818 µM)	> 100	3.1 (≈ 4.22 µM)	0.1 (≈ 0.136 µM)	0.2 (≈ 0.273 µM)	3.1 (≈ 4.22 µM)	0.39 (≈ 0.531 µM)	0.2 (≈ 0.273 µM)	0.02 (≈ 0.0273 µM)	> 100	0.05 (≈ 0.0681 µM)	0.05 (≈ 0.0681 µM)	0.39 (≈ 0.531 µM)	> 100	> 100	4 (≈ 5.45 µM)	6.2 (≈ 8.45 µM)	0.78 (≈ 1.06 µM)	0.06 (≈ 0.0818 µM)	MIC [8]: 0.39 µg/mL (≈ 0.531 µM); MIC [12]: 0.05 µg/mL (≈ 0.0681 µM); MIC [16]: 0.39 µg/mL (≈ 0.531 µM); MIC (Escherichia coli DC-2): > 100 µg/mL; MIC [21]: 0.05 µg/mL (≈ 0.0681 µM); MIC [22]: > 100 µg/mL
CC[C@H]1OC(=O)[C@H](C)C(=O)[C@H](C)[C@@H](O[C@@H]2O[C@H](C)C[C@H](N(C)C)[C@H]2O)[C@](C)(OCC#Cc2ccc(-c3ccccn3)s2)C[C@@H](C)C(=O)[C@H](C)[C@H]2NC(=O)O[C@@]21C [Example 1, Compound of Formula I: R^b is H, L is -C(O)-, T is -NH-, R is-(CH2)-C≡C-(5-(2-pyridyl)-2-thienyl)]	0.25	0.03	> 100	0.2	0.02	0.1	0.05	0.1	0.05	0.01	> 100	0.02	0.02	0.1	12.5	12.5	2	0.1	0.1	0.03	MIC [8]: 0.05 µg/mL; MIC [12]: 0.05 µg/mL; MIC [16]: 0.05 µg/mL; MIC (Escherichia coli DC-2): 6.2 µg/mL; MIC [21]: 0.02 µg/mL; MIC [22]: > 100 µg/mL; MIC [23]: 0.25 µg/mL
CC[C@H]1OC(=O)[C@H](C)C(=O)[C@H](C)[C@@H](O[C@@H]2O[C@H](C)C[C@H](N(C)C)[C@H]2O)[C@](C)(OCC#Cc2ccc(-c3cccnc3)s2)C[C@@H](C)C(=O)[C@H](C)[C@H]2NC(=O)O[C@@]21C [Example 2, Compound of Formula I: R^b is H, L is -C(O)-, T is -NH-, R is-(CH2)-C≡C-(5-(3-pyridyl)-2-thienyl)]	0.12	0.03	> 100	0.2	0.05	0.1	0.05	0.05	0.05	≤ 0.005	> 100	≤ 0.005	0.01	0.05	25	3.1	2	0.1	0.1	0.03	MIC [8]: 0.05 µg/mL; MIC [12]: 0.05 µg/mL; MIC [16]: 0.05 µg/mL; MIC (Escherichia coli DC-2): 25 µg/mL; MIC [21]: ≤ 0.005 µg/mL; MIC [22]: > 100 µg/mL; MIC [23]: 0.25 µg/mL
CC[C@H]1OC(=O)[C@H](C)C(=O)[C@H](C)[C@@H](O[C@@H]2O[C@H](C)C[C@H](N(C)C)[C@H]2O)[C@](C)(OCC#Cc2ccc(-c3ccncc3)s2)C[C@@H](C)C(=O)[C@H](C)[C@H]2NC(=O)O[C@@]21C [Example 3, Compound of Formula I: R^b is H, L is -C(O)-, T is -NH-, R is-(CH2)-C≡C-(5-(4-pyridyl)-2-thienyl)]	0.125	≤ 0.004	> 100	0.039	0.01	0.05	0.05	> 100	0.05	≤ 0.05	> 100	≤ 0.05	≤ 0.05	–	100	6.2	2	0.1	0.2	≤ 0.004	MIC [8]: 0.1 µg/mL; MIC [23]: 2 µg/mL
CC[C@H]1OC(=O)[C@H](C)C(=O)[C@H](C)[C@@H](O[C@@H]2O[C@H](C)C[C@H](N(C)C)[C@H]2O)[C@](C)(OCC#Cc2ccc(-c3ccccn3)s2)C[C@@H](C)C(=O)[C@H](C)[C@H]2N(N)C(=O)O[C@]12C [Example 5, Compound of Formula I: R^b is H, L is -C(O)-, T is -N(W-R^d)-, W is -NH-, R^d is H, R is-(CH2)-C≡C-(5-(2-pyridyl)-2-thienyl)]	0.25	0.015	> 100	1.56	0.01	0.1	0.05	0.1	0.05	≤ 0.005	> 100	≤ 0.005	0.01	0.1	25	50	2	0.39	0.2	0.015	MIC [22]: > 100 µg/mL; MIC [23]: 2 µg/mL
Compound of Formula II: R^b is H, R is -(CH2)-C≡C-(5-(2-pyridyl)-2-thienyl) [Example 4]	0.25	≤ 0.004	> 100	0.2	0.02	0.2	0.1	0.1	0.05	0.01	> 100	0.05	0.02	0.2	25	6.2	4	0.2	0.39	≤ 0.004	MIC [22]: > 100 µg/mL; MIC [23]: 4 µg/mL

Source: patent EP1161438B1, “6-O-SUBSTITUTED MACROLIDES HAVING ANTIBACTERIAL ACTIVITY” (ABBOTT LABORATORIES, priority 1999, dated 2000)
